Consider six compounds from PMC7766232, “Cyclic RGD and isoDGR Integrin Ligands Containing cis-2-amino-1-cyclopentanecarboxylic (cis-β-ACPC) Scaffolds” (Molecules, 2020).

Where two headings read alike, the source gives them in different places. Starred links: 1 amine or outer side, 2 acyl side, 3 side chain; linkers in the order of their positions; H or OH if unused. Positions of bridges follow the written chain, without caps; N, C: chain ends. Non-standard residues stand in square brackets, D forms with d. Residues, ends and D or L forms follow the SMILES beside them. X1 = O=C([C@@H]1CCC[C@@H]1N[*:1])[*:2] Where only a bound is given, the exact number is not on record here.

In assay [1] the target is T1, purified αvβ3 receptor (Homo sapiens, UniProt P05106+P06756). Set-up: method as in PMID 23424096, PMID 28934103, PMID 28168158, PMID 31275795. Conditions: reference compounds, measured using the same procedure; biotinylated vitronectin; mean ± SD; ref [29],[48],[49],[50]; cited from earlier work.
The target of a further assay is WM115 cells (Homo sapiens, UniProt P05106+P06756). The format is cell-based. Here is the method: WM-115 cells were washed with MEM (Minimum Essential Medium)-buffer, detached with trypsin and resuspended to a cell density of 1 × 10^5 cells/mL. WM-115 cells were then incubated with fluorescein diacetate for 30 min at 37 °C in the dark, washed with MEM medium and resuspended with MEM medium containing CaCl2 and MgCl2 (2 mM) and incubated on ice for 30 min in the dark. […] 0.00195313, 0.00097565, 0.00048828, 0.00024414). Cells and peptide were incubated for 30 min at 37° C in the dark and afterwards added to the 96-well ELISA-plates previously coated with vitronectin and incubated for 1 h at 37 °C in the dark. Unbound cells were aspirated, and bound cells were washed three times with MEM medium and fluorescence measured (λex: 485 nm, λem: 514 nm) with an InfiniteTM 200 Microplate Reader (Tecan, Männedorf, Switzerland). […] The IC50 values were determined four times per peptide in two independent assays here reported, and the final values are the arithmetic mean ± the standard deviation (SD) of the two independent assays. The reference peptide […] was tested together with the peptides.

For assay [2], the target named is T2, purified α5β1 receptor (Homo sapiens, UniProt P05556+P08648). Nature of the assay: Competitive binding assay to purified α5β1 receptor (displacement of biotinylated fibronectin). Conditions: immobilized integrin α5β1, biotinylated fibronectin 1 μg mL−1; mean ± SD of duplicate determinations. How it is done:
(§1) The cyclic peptidomimetics 8–10 were analyzed in a first instance for their competitive binding to purified αvβ3 and α5β1 receptors with respect to the biotinylated vitronectin or fibronectin, respectively. The IC50 values are collected in Table 1, where the values of Cilengitide (1a), cyclo-[RGDfV] (1b), cyclo-[DKP-RGD] (4), and cyclo-[DKP-isoDGR] (7), measured using the same procedure, are included as reference compounds for the RGD and isoDGR series. The new RGD compounds cyclo-[-Arg-Gly-Asp-(1S,2R)-β-ACPC-Val-] (8) and cyclo-[-Arg-Gly-Asp-(1R,2S)-β-ACPC-Val-] […] (10) is a micromolar binder for both integrins, much weaker than cyclo-[DKP-isoDGR] (7) in the case of αvβ3.
(§2) The inhibition assays of biotinylated vitronectin and fibronectin binding to the αvβ3 and α5β1 receptors, for compounds 8–10 were carried out as previously reported. […] Screening assays were performed by incubating the immobilized integrin αvβ3 or α5β1 with increasing concentrations (10^−12–10^−5 M/10^−11–10^−4 M) of the RGD and isoDGR ligands in the presence of the corresponding biotinylated ECM protein (1 μg mL^−1), and measuring bound protein in the presence of the competitive ligand. Each data point is the result of the average of triplicate wells and was analyzed by nonlinear regression analysis with the GraphPad Prism software. Each experiment was repeated in duplicate. IC50 values are the arithmetic mean ± the standard deviation (SD) of these duplicate determinations.

Assay [3] addresses T1, purified αvβ3 receptor. Nature of the assay: Competitive binding assay to purified αvβ3 receptor (displacement of biotinylated vitronectin). To be noted: for IC50: immobilized integrin αvβ3, biotinylated vitronectin 1 μg mL−1, mean ± SD of duplicate determinations; for selectivity ratio (IC50α5β1/IC50αvβ3): ratio of competitive binding IC50 values, α5β1 over αvβ3. How it is done: as §1, §2

Assay [4] has as its target T2, purified α5β1 receptor. Set-up: method as in PMID 23424096, PMID 28934103, PMID 28168158, PMID 31275795. Conditions: reference compounds, measured using the same procedure; biotinylated fibronectin; mean ± SD; ref [29],[48],[49],[50]; cited from earlier work.
[5] abbreviates: read-out: IC50 (50% inhibition of cell adhesion to vitronectin), WM115 cells, fluorescein labeled, mean ± SD of two independent assays.
Setting [6] is: read-out: IC50 cell adhesion, 1° Assay, WM-115 cells, vitronectin-coated plates, first independent assay (Figure S4).
[7] abbreviates: read-out: IC50 cell adhesion, 2° Assay, WM-115 cells, vitronectin-coated plates, second independent assay (Figure S5).

Take “cyclo[Arg-Gly-Asp-NMe Val-D-Phe] [Compound 1a]”: the IC50 (as a rule, the concentration needed to halve the response being measured) in the assay with purified αvβ3 receptor [1] is 0.00071 ± 6e-05 µM.
With `CC(C)[C@@H]1NC(=O)[C@H]2CCC[C@H]2NC(=O)[C@H](CC(=O)O)NC(=O)CNC(=O)[C@H](CCCNC(=N)N)NC1=O` [Compound 8, cyclo-[-Arg-Gly-Asp-(1S,2R)-β-ACPC-Val-]], the IC50 at WM115 cells (setting [5]) stood at 75 ± 32.5 µM; on WM115 cells (setting [6]) it was 52 µM; on WM115 cells (setting [7]), 98 µM; at purified α5β1 receptor [2], 3.23 ± 1.47 µM; on purified αvβ3 receptor [3], 0.0443 ± 0.004 µM. At purified αvβ3 receptor [3], the “selectivity ratio (IC50α5β1/IC50αvβ3)” value is reported as ~73.
As for `CC(C)[C@@H]1NC(=O)[C@@H]2CCC[C@@H]2NC(=O)[C@H](CCCNC(=N)N)NC(=O)CNC(=O)C[C@@H](C(=O)O)NC1=O` [Compound 10, cyclo-[-isoAsp-Gly-Arg-(1R,2S)-β-ACPC-Val-]] (GR[X1]VD-OH; lactam N-5), the “IC50 (50% inhibition of cell adhesion to vitronectin)” value on WM115 cells (WM115 cells, fluorescein labeled, mean ± SD of two independent assays) is reported as “could not be measured”. Also, the IC50 at WM115 cells (setting [6]) is > 300 µM; at WM115 cells (setting [7]) it was > 300 µM; at purified α5β1 receptor [2], 2.33 ± 0.134 µM; on purified αvβ3 receptor [3], 5.36 ± 0.281 µM.
Consider `CC(C)[C@@H]1NC(=O)[C@@H]2CCC[C@@H]2NC(=O)[C@H](CC(=O)O)NC(=O)CNC(=O)[C@H](CCCNC(=N)N)NC1=O` [Compound 9, cyclo-[-Arg-Gly-Asp-(1R,2S)-β-ACPC-Val-]], for which the IC50 on WM115 cells (setting [5]) turned out to be 124 µM; at WM115 cells (setting [6]), 117 µM; on WM115 cells (setting [7]), 132 µM; at purified α5β1 receptor [2], 0.468 ± 0.114 µM; on purified αvβ3 receptor [3] it was 0.039 ± 0.0011 µM. In addition, the “selectivity ratio (IC50α5β1/IC50αvβ3)” value on purified αvβ3 receptor [3] is listed as “about 12”.
In the case of cyclo-[-DKP-Arg-Gly-Asp-] [Compound 4], the IC50 on purified α5β1 receptor [4] is 0.532 ± 0.035 µM; at purified αvβ3 receptor [1], 0.0045 ± 0.0011 µM.
“cyclo-(-DKP-isoAsp-Gly-Arg-) [Compound 7]”: the 50% inhibitory concentration (IC50) at purified α5β1 receptor [4] is 1.07 ± 0.228 µM; at purified αvβ3 receptor [1], 0.0092 ± 0.0011 µM.
